{"source": "the supplement of paper PMC10307832", "assay_in_all_cases": "relative viability (nuclei count vs DMSO), 5 days (fraction); higher = more cells survive", "key": {"CAL-12T": {"system": "CAL-12T", "procedure,_shortened": "(§1)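 Values are medians from duplicate plates. Each reflects relative viability, defined as the nuclei count of treated wells over that of vehicle wells. Lung cancer cell lines in 1536-well plates were pin-tool dosed one day after seeding with one drug alone or with a fixed anchor-drug dose plus five library-drug doses (not always all listed) in √10 steps, then fixed, stained and imaged at 4× after 5 days.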"}, "ChaGo-K-1": {"system": "ChaGo-K-1", "procedure,_shortened": "as §1"}, "EMC-BAC-2": {"system": "EMC-BAC-2", "procedure,_shortened": "as §1"}, "HCC-366": {"system": "HCC-366", "procedure,_shortened": "as §1"}, "HCC-78": {"system": "HCC-78", "procedure,_shortened": "as §1"}, "HOP-62": {"system": "HOP-62", "procedure,_shortened": "as §1"}, "LC-2-ad": {"system": "LC-2-ad", "procedure,_shortened": "as §1"}, "LK-2": {"system": "LK-2", "procedure,_shortened": "as §1"}, "NCI-H1355": {"system": "NCI-H1355", "procedure,_shortened": "as §1"}, "NCI-H1734": {"system": "NCI-H1734", "procedure,_shortened": "as §1"}, "NCI-H1993": {"system": "NCI-H1993", "procedure,_shortened": "as §1"}, "NCI-H2009": {"system": "NCI-H2009", "procedure,_shortened": "as §1"}, "NCI-H2085": {"system": "NCI-H2085", "procedure,_shortened": "as §1"}, "NCI-H2228": {"system": "NCI-H2228", "procedure,_shortened": "as §1"}, "NCI-H2347": {"system": "NCI-H2347", "procedure,_shortened": "as §1"}, "NCI-H2405": {"system": "NCI-H2405", "procedure,_shortened": "as §1"}, "NCI-H3122": {"system": "NCI-H3122", "procedure,_shortened": "as §1"}, "NCI-H596": {"system": "NCI-H596", "procedure,_shortened": "as §1"}, "NCI-H838": {"system": "NCI-H838", "procedure,_shortened": "as §1"}, "PC-14": {"system": "PC-14", "procedure,_shortened": "as §1"}, "RERF-LC-KJ": {"system": "RERF-LC-KJ", "procedure,_shortened": "as §1"}, "SK-MES-1": {"system": "SK-MES-1", "procedure,_shortened": "as §1"}, "SW 1573": {"system": "SW 1573", "procedure,_shortened": "as §1"}}, "data": [{"compound": "Cc1cnc(-c2cnc(NCCNc3ccc(C#N)cn3)nc2-c2ccc(Cl)cc2Cl)[nH]1", "note": "+ COc1cccc2cc(-c3nc([C@H]4CC[C@H](C(=O)O)CC4)n4ncnc(N)c34)[nH]c12 [OSI-027] (partner 0.5 µM)", "values": [{"measurement": "relative viability", "setting": "CAL-12T; first compound 0.08 µM", "value": 0.774}, {"measurement": "relative viability", "setting": "CAL-12T; first compound 0.253 µM", "value": 0.59}, {"measurement": "relative viability", "setting": "CAL-12T; first compound 0.8 µM", "value": 0.565}, {"measurement": "relative viability", "setting": "CAL-12T; first compound 2.53 µM", "value": 0.571}, {"measurement": "relative viability", "setting": "ChaGo-K-1; first compound 0.08 µM", "value": 0.608}, {"measurement": "relative viability", "setting": "ChaGo-K-1; first compound 0.253 µM", "value": 0.442}, {"measurement": "relative viability", "setting": "ChaGo-K-1; first compound 0.8 µM", "value": 0.623}, {"measurement": "relative viability", "setting": "ChaGo-K-1; first compound 2.53 µM", "value": 0.592}, {"measurement": "relative viability", "setting": "EMC-BAC-2; first compound 0.08 µM", "value": 0.407}, {"measurement": "relative viability", "setting": "EMC-BAC-2; first compound 0.253 µM", "value": 0.37}, {"measurement": "relative viability", "setting": "EMC-BAC-2; first compound 0.8 µM", "value": 0.341}, {"measurement": "relative viability", "setting": "EMC-BAC-2; first compound 2.53 µM", "value": 0.447}, {"measurement": "relative viability", "setting": "HCC-366; first compound 0.08 µM", "value": 1.01}, {"measurement": "relative viability", "setting": "HCC-366; first compound 0.253 µM", "value": 0.489}, {"measurement": "relative viability", "setting": "HCC-366; first compound 0.8 µM", "value": 0.558}, {"measurement": "relative viability", "setting": "HCC-366; first compound 2.53 µM", "value": 0.695}, {"measurement": "relative viability", "setting": "HCC-78; first compound 0.08 µM", "value": 0.41}, {"measurement": "relative viability", "setting": "HCC-78; first compound 0.253 µM", "value": 0.391}, {"measurement": "relative viability", "setting": "HCC-78; first compound 0.8 µM", "value": 0.366}, {"measurement": "relative viability", "setting": "HCC-78; first compound 2.53 µM", "value": 0.438}, {"measurement": "relative viability", "setting": "HOP-62; first compound 0.08 µM", "value": 0.914}, {"measurement": "relative viability", "setting": "HOP-62; first compound 0.253 µM", "value": 0.813}, {"measurement": "relative viability", "setting": "HOP-62; first compound 0.8 µM", "value": 0.972}, {"measurement": "relative viability", "setting": "HOP-62; first compound 2.53 µM", "value": 0.795}, {"measurement": "relative viability", "setting": "LC-2-ad; first compound 0.08 µM", "value": 0.886}, {"measurement": "relative viability", "setting": "LC-2-ad; first compound 0.253 µM", "value": 0.713}, {"measurement": "relative viability", "setting": "LC-2-ad; first compound 2.53 µM", "value": 0.962}, {"measurement": "relative viability", "setting": "LK-2; first compound 0.08 µM", "value": 0.204}, {"measurement": "relative viability", "setting": "LK-2; first compound 0.253 µM", "value": 0.248}, {"measurement": "relative viability", "setting": "LK-2; first compound 0.8 µM", "value": 0.231}, {"measurement": "relative viability", "setting": "LK-2; first compound 2.53 µM", "value": 0.318}, {"measurement": "relative viability", "setting": "NCI-H1355; first compound 0.08 µM", "value": 0.404}, {"measurement": "relative viability", "setting": "NCI-H1355; first compound 0.253 µM", "value": 0.434}, {"measurement": "relative viability", "setting": "NCI-H1355; first compound 0.8 µM", "value": 0.395}, {"measurement": "relative viability", "setting": "NCI-H1355; first compound 2.53 µM", "value": 0.439}, {"measurement": "relative viability", "setting": "NCI-H1734; first compound 0.08 µM", "value": 0.66}, {"measurement": "relative viability", "setting": "NCI-H1734; first compound 0.253 µM", "value": 0.547}, {"measurement": "relative viability", "setting": "NCI-H1734; first compound 0.8 µM", "value": 0.597}, {"measurement": "relative viability", "setting": "NCI-H1734; first compound 2.53 µM", "value": 0.616}, {"measurement": "relative viability", "setting": "NCI-H1993; first compound 0.08 µM", "value": 0.568}, {"measurement": "relative viability", "setting": "NCI-H1993; first compound 0.253 µM", "value": 0.49}, {"measurement": "relative viability", "setting": "NCI-H1993; first compound 0.8 µM", "value": 0.536}, {"measurement": "relative viability", "setting": "NCI-H1993; first compound 2.53 µM", "value": 0.577}, {"measurement": "relative viability", "setting": "NCI-H2009; first compound 0.08 µM", "value": 0.729}, {"measurement": "relative viability", "setting": "NCI-H2009; first compound 0.253 µM", "value": 0.597}, {"measurement": "relative viability", "setting": "NCI-H2009; first compound 0.8 µM", "value": 0.609}, {"measurement": "relative viability", "setting": "NCI-H2009; first compound 2.53 µM", "value": 0.496}, {"measurement": "relative viability", "setting": "NCI-H2085; first compound 0.08 µM", "value": 0.812}, {"measurement": "relative viability", "setting": "NCI-H2085; first compound 0.253 µM", "value": 0.786}, {"measurement": "relative viability", "setting": "NCI-H2085; first compound 0.8 µM", "value": 0.677}, {"measurement": "relative viability", "setting": "NCI-H2085; first compound 2.53 µM", "value": 0.756}, {"measurement": "relative viability", "setting": "NCI-H2228; first compound 0.08 µM", "value": 0.779}, {"measurement": "relative viability", "setting": "NCI-H2228; first compound 0.253 µM", "value": 0.807}, {"measurement": "relative viability", "setting": "NCI-H2228; first compound 0.8 µM", "value": 0.569}, {"measurement": "relative viability", "setting": "NCI-H2228; first compound 2.53 µM", "value": 0.469}, {"measurement": "relative viability", "setting": "NCI-H2347; first compound 0.08 µM", "value": 0.397}, {"measurement": "relative viability", "setting": "NCI-H2347; first compound 0.253 µM", "value": 0.415}, {"measurement": "relative viability", "setting": "NCI-H2347; first compound 0.8 µM", "value": 0.324}, {"measurement": "relative viability", "setting": "NCI-H2347; first compound 2.53 µM", "value": 0.426}, {"measurement": "relative viability", "setting": "NCI-H2405; first compound 0.08 µM", "value": 0.655}, {"measurement": "relative viability", "setting": "NCI-H2405; first compound 0.253 µM", "value": 0.654}, {"measurement": "relative viability", "setting": "NCI-H2405; first compound 0.8 µM", "value": 0.654}, {"measurement": "relative viability", "setting": "NCI-H2405; first compound 2.53 µM", "value": 0.615}, {"measurement": "relative viability", "setting": "NCI-H3122; first compound 0.08 µM", "value": 1.4}, {"measurement": "relative viability", "setting": "NCI-H3122; first compound 0.8 µM", "value": 1.05}, {"measurement": "relative viability", "setting": "NCI-H3122; first compound 2.53 µM", "value": 0.967}, {"measurement": "relative viability", "setting": "NCI-H596; first compound 0.08 µM", "value": 0.846}, {"measurement": "relative viability", "setting": "NCI-H596; first compound 0.253 µM", "value": 0.73}, {"measurement": "relative viability", "setting": "NCI-H596; first compound 0.8 µM", "value": 0.483}, {"measurement": "relative viability", "setting": "NCI-H596; first compound 2.53 µM", "value": 0.668}, {"measurement": "relative viability", "setting": "NCI-H838; first compound 0.08 µM", "value": 0.433}, {"measurement": "relative viability", "setting": "NCI-H838; first compound 0.253 µM", "value": 0.424}, {"measurement": "relative viability", "setting": "NCI-H838; first compound 0.8 µM", "value": 0.46}, {"measurement": "relative viability", "setting": "NCI-H838; first compound 2.53 µM", "value": 0.846}, {"measurement": "relative viability", "setting": "PC-14; first compound 0.08 µM", "value": 1.21}, {"measurement": "relative viability", "setting": "PC-14; first compound 0.253 µM", "value": 0.673}, {"measurement": "relative viability", "setting": "PC-14; first compound 0.8 µM", "value": 0.76}, {"measurement": "relative viability", "setting": "PC-14; first compound 2.53 µM", "value": 0.643}, {"measurement": "relative viability", "setting": "RERF-LC-KJ; first compound 0.08 µM", "value": 0.672}, {"measurement": "relative viability", "setting": "RERF-LC-KJ; first compound 0.253 µM", "value": 0.591}, {"measurement": "relative viability", "setting": "RERF-LC-KJ; first compound 0.8 µM", "value": 0.454}, {"measurement": "relative viability", "setting": "RERF-LC-KJ; first compound 2.53 µM", "value": 0.697}, {"measurement": "relative viability", "setting": "SK-MES-1; first compound 0.08 µM", "value": 0.738}, {"measurement": "relative viability", "setting": "SK-MES-1; first compound 0.253 µM", "value": 0.594}, {"measurement": "relative viability", "setting": "SK-MES-1; first compound 0.8 µM", "value": 0.528}, {"measurement": "relative viability", "setting": "SK-MES-1; first compound 2.53 µM", "value": 0.777}, {"measurement": "relative viability", "setting": "SW 1573; first compound 0.08 µM", "value": 0.538}, {"measurement": "relative viability", "setting": "SW 1573; first compound 0.253 µM", "value": 0.483}, {"measurement": "relative viability", "setting": "SW 1573; first compound 0.8 µM", "value": 0.33}, {"measurement": "relative viability", "setting": "SW 1573; first compound 2.53 µM", "value": 0.363}]}]}
